In patent US20260219194A1, “BIOSENSOR FOR WATER ANALYSIS” (BIOCELL ANALYTICA UPPSALA AB, priority 2023, published 2026):

System: estrogen responsive promoter (four repeats of estrogen response element, ERE) in MCF-7/S0.5 reporter cells
Assay: Estrogen-responsive NanoLuc luciferase reporter assay in transfected MCF-7/S0.5 cells, luminescence in culture medium without cell lysis
Format: cell-based, human
Details: MCF-7/S0.5 reporter cells exposed for 24 h to 0.03 to 109 ng/L
Procedure: MCF-7/S0.5 human breast cancer cells (Sigma-Aldrich, catalogue no. SCC100) were cultured in medium supplemented with 1% charcoal-stripped fetal bovine serum (FBS) for 48 hours prior to seeding. The cells were then seeded in medium supplemented with 1% FBS and incubated for 48 hours. […]
The luminescence was measured in the cell culture medium by a Spark® Multimode Microplate Reader (Tecan) from three experimental groups: a) negative control with only cell culture medium but no cells, b) cell culture medium and non-transfected cells, and c) cell cultured medium and cells transfected with the reporter plasmid mentioned above (“reporter cells”).
The MCF-7/S0.5 cells transfected with the reporter plasmid where the expression of NanoLuc® luciferase with an N-terminal secretion signal was under the regulation of an estrogen responsive promoter produced in Example 1 were exposed for 24 h to increasing concentrations of 17β-estradiol, ranging from 0.03 to 109 ng/L. The luminescence was then analyzed in the cell culture medium, without cell lysis.

With `C[C@]12CC[C@@H]3c4ccc(O)cc4CC[C@H]3[C@@H]1CC[C@@H]2O` [E2, 17β-estradiol] the “amount of NanoLuc luciferase secreted into the cell culture medium” value (FIG. 6) was “increasing with increasing concentration of E2” and the “effect concentration 20% (EC20)” value (luminescence of secreted NanoLuc luciferase in cell culture medium) was 0.00019 ng/mL.
